Source: paper PMC4835159 (Journal of Medicinal Chemistry, 2016)
Converted amounts (≈) assume the structure as drawn. Where two headings read alike, the source gives them in different places.

Experiments:
CYP144TR = molecular target: T1, CYP144TR (Mycobacterium tuberculosis, UniProt P9WPL1)
T1 sequence (P9WPL1 31-434 limits assumed): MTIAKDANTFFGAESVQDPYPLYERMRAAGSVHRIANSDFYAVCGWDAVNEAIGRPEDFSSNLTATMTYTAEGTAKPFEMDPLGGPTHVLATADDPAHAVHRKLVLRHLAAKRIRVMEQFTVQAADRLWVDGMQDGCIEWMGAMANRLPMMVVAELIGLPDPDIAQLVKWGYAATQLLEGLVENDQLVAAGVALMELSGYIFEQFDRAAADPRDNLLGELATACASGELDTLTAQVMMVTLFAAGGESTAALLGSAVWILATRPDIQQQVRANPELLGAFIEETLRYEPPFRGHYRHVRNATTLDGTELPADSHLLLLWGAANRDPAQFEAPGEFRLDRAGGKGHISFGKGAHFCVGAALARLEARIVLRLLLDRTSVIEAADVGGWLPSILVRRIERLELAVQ

CYP121 [1] = molecular target: T2, CYP121 (Mycobacterium tuberculosis, UniProt P9WPP7); type: binding
[2] = system: CYP1A (combined CYP1A1 and CYP1A2); test: Human P450 inhibition in human liver microsomes, CYP1A (ethoxyresorufin); conditions: human
CYP121 [3] = molecular target: T2, CYP121; test: Native mass spectrometry of CYP121 with ligands; type: binding
CYP125 = molecular target: T3, CYP125 (Mycobacterium tuberculosis, UniProt P9WPP1); test: Single shot UV–vis binding mode assay on CYP125
T3 sequence (P9WPP1 1-433): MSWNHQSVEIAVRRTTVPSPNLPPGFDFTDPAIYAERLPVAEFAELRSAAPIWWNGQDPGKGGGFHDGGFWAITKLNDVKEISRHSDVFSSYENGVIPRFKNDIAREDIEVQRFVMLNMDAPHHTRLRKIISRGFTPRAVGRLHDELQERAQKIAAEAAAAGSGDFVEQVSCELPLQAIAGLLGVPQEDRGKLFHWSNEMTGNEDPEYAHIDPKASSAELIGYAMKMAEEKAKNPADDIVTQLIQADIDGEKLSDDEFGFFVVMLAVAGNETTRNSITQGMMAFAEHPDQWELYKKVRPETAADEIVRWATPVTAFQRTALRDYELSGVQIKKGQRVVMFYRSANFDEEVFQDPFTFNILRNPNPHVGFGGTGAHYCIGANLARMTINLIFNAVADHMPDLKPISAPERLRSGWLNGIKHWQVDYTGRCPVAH

CYP121 [4] = molecular target: T2, CYP121; test: Single shot UV–vis absorbance assay (Soret band shift, competition with type II inhibitor) on CYP121; type: binding; conditions: for Binding Mode, CYP121: analogues 100 μM or 1 mM, P450 2.5–5 μM
Mtb H37Rv = test: Antimycobacterial activity assay (MIC90); type: cell-based, Mycobacterium tuberculosis; parameters: key to MIC90: “N” indicates that compounds did not produce any significant cell death within the tested concentration range; conditions: triplicate, 0–100 μM, 2 weeks
CYP1A = test: Human P450 inhibition in human liver microsomes, CYP1A (ethoxyresorufin); conditions: IC50 for CYP1A versus CYP121 KD
CYP143 = molecular target: T4, CYP143 (Mycobacterium tuberculosis, UniProt P9WPL3); test: Single shot UV–vis binding mode assay on CYP143; conditions: analogues 100 μM or 1 mM, P450 2.5–5 μM
T4 construct: made in house
T4 sequence (P9WPL3 whole entry): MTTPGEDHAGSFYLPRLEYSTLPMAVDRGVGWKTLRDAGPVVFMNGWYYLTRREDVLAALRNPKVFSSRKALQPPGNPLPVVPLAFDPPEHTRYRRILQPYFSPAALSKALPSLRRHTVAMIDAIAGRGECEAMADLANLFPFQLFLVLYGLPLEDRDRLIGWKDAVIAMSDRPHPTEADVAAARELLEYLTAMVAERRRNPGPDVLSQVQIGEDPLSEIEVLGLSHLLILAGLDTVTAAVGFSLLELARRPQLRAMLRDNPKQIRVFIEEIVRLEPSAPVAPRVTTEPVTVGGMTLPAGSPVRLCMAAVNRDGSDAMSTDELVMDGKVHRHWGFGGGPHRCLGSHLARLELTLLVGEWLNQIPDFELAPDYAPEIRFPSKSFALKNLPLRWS
Method: UV–vis screening was performed using a CARY400 UV–vis spectrophotometer (Varian, CA, USA). Ligands were prepared as DMSO-d6 stock solutions (1–100 mM) and added to protein (5 μM) solutions (198 μL) or to buffer alone to give a final DMSO-d6 concentration of 1% v/v. CYP121 was prepared in 50 mM Tris-HCl (pH 7.2), 1 mM EDTA buffer. CYP125, CYP126, CYP142, CYP143, and CYP144 were prepared in 50 mM Tris-HCl (pH 7.5), 100 mM KCl buffer. CYP124 was prepared in 100 mM potassium phosphate (pH 7.0), 100 mM KCl buffer. Spectra were recorded between 800 and 250 nm at 25 °C. Any spectral interference from the inherent absorbance of added ligands/solvent was removed by subtracting spectra collected for protein-free samples of the same ligands/solvent in buffer. The difference in Soret wavelength maximum (Δλmax) of the respective P450s Soret band (λmax) in the presence of ligands compared to that obtained for a 1% v/v DMSO-d6 control was used to identify type I or type II heme-binding interactions. […]
The difference in the red-shift of the Soret band between competition assays and that found for the known type II ligand in the absence of competing ligands was used to determine competitive binding. Buffer control spectra were collected to account for any inherent absorbance of added ligands/solvent and all solutions were inspected and found to be free of precipitate. […]

native MS = molecular target: the molecule itself; test: native MS

Molecule: Nc1cccc(-c2cccc(-c3c(-c4ccc(O)cc4)n[nH]c3N)c2)c1 [25a, 4-(5-Amino-4-(3′-amino-[1,1′-biphenyl]-3-yl)-1H-pyrazol-3-yl)phenol]
- Binding Mode, CYP144TR (CYP144TR): N
- LE (ligand efficiency) (CYP121 [1]): 0.41
- selectivity ratio [2]: ~15000
- Monomer (%) of CYP121 (CYP121 [3]; Protein-Ligand Ratio 1:0.5): 14%
- ligand binding stoichiometry, CYP121 Dimer (CYP121 [3]; Protein-Ligand Ratio 1:0.5): 1
- ligand binding stoichiometry, CYP121 Monomer (CYP121 [3]; Protein-Ligand Ratio 1:0.5): 1
- Monomer (%) of CYP121 (CYP121 [3]; Protein-Ligand Ratio 1:1): 13%
- ligand binding stoichiometry, CYP121 Dimer (CYP121 [3]; Protein-Ligand Ratio 1:1): 2
- ligand binding stoichiometry, CYP121 Monomer (CYP121 [3]; Protein-Ligand Ratio 1:1): 1
- Monomer (%) of CYP121 (CYP121 [3]; Protein-Ligand Ratio 1:25): 0%
- ligand binding stoichiometry, CYP121 Dimer (CYP121 [3]; Protein-Ligand Ratio 1:25): 2
- ligand binding stoichiometry, CYP121 Monomer (CYP121 [3]; Protein-Ligand Ratio 1:25): 1
- Binding Mode, CYP125 (CYP125): N
- shifts in the CYP121 optical spectrum (CYP121 [4]; UV–vis spectroscopy): type II shifts
- Δλmax (type II shift) (CYP121 [4]; ligand 100 μM, CYP121): +5.0 nm
- MIC90 (Mtb H37Rv; Mycobacterium tuberculosis, 336 h, read-out: MIC90): 100 µM (≈ 34.2 µg/mL)

Molecule: Oc1ccc(CNc2[nH]nc(-c3ccc(O)cc3)c2-c2ccc(O)cc2)cc1 [26a, 4,4′-(5-((4-Hydroxybenzyl)amino)-1H-pyrazole-3,4-diyl)diphenol]
- Binding Mode, CYP144TR (CYP144TR): N
- LE (ligand efficiency) (CYP121 [1]): 0.25
- app SR (IC50/KD) (CYP1A): >4
- Monomer (%) of CYP121 (CYP121 [3]; Protein-Ligand Ratio 1:0.5): 14%
- ligand binding stoichiometry, CYP121 Dimer (CYP121 [3]; Protein-Ligand Ratio 1:0.5): 1
- ligand binding stoichiometry, CYP121 Monomer (CYP121 [3]; Protein-Ligand Ratio 1:0.5): 0
- Monomer (%) of CYP121 (CYP121 [3]; Protein-Ligand Ratio 1:1): 29%
- ligand binding stoichiometry, CYP121 Dimer (CYP121 [3]; Protein-Ligand Ratio 1:1): 1
- ligand binding stoichiometry, CYP121 Monomer (CYP121 [3]; Protein-Ligand Ratio 1:1): 0
- Monomer (%) of CYP121 (CYP121 [3]; Protein-Ligand Ratio 1:25): 14%
- ligand binding stoichiometry, CYP121 Dimer (CYP121 [3]; Protein-Ligand Ratio 1:25): 2
- ligand binding stoichiometry, CYP121 Monomer (CYP121 [3]; Protein-Ligand Ratio 1:25): 1
- Binding Mode, CYP143 (CYP143): N
- Binding Mode, CYP121 (CYP121 [4]): N
- MIC90 (Mtb H37Rv): N

Molecule: Nc1[nH]nc(-c2ccc(O)cc2)c1-c1ccc(O)cc1 [compound 5, 4,4′-(5-Amino-1H-pyrazole-3,4-diyl)diphenol]
- Binding Mode, CYP144TR (CYP144TR): N
- LE (ligand efficiency) (CYP121 [1]; Gibbs free energy of binding to CYP121 divided by number of heavy atoms (ΔG/HA)): 0.30
- Binding Mode, CYP125 (CYP125): N
- Binding Mode, CYP143 (CYP143): N
- Binding Mode, CYP121 (CYP121 [4]): N
- MIC90 (Mtb H37Rv): N

B1: Mycobacterium tuberculosis CYP121 (Rv2276), His6-tagged construct (enzyme)
chain: MTATVLLEVPFSARGDRIPDAVAELRTREPIRKVRTITGAEAWLVSSYALCTQVLEDRRFSMKETAAAGAPRLNALTVPPEVVNNMGNIADAGLRKAVMKAITPKAPGLEQFLRDTANSLLDNLITEGAPADLRNDFADPLATALHCKVLGIPQEDGPKLFRSLSIAFMSSADPIPAAKINWDRDIEYMAGILENPNITTGLMGELSRLRKDPAYSHVSDELFATIGVTFFGAGVISTGSFLTTALISLIQRPQLRNLLHEKPELIPAGVEELLRINLSFADGLPRLATADIQVGDVLVRKGELVLVLLEGANFDPEHFPNPGSIELDRPNPTSHLAFGRGQHFCPGSALGRRHAQIGIEALLKKMPGVDLAVPIDQLVWRTRFQRRIPERLPVLW
- stoichiometry N (native MS): 2
